What was measured:
[1] = system: mitochondrial fraction isolated from CT-26 tumors; assay: Cytochrome c release from mitochondrial fraction; format: biochemical, murine; conditions: 3 mM
Description: Freshly isolated mitochondrial fraction, at a final concentration of 2 mg/ml in a volume of 100 μL, was incubated at 37° C. with the examined agent, e.g. methyl jasmonate, in a KCl-based respiratory buffer (150 mM KCl, 25 mM NaHCO3, 1 mM MgCl2, 3 mM KH2PO4, 20 mM Hepes, pH 7.4; Pastorino, 2002). Potassium succinate (5 mM) was added as respiratory substrate (Azoulay-Zohar, 2004). For the determination of cytochrome c release, mitochondrial fraction was pelleted at 20,000×g for 10 minutes at 4° C. Pellets were incubated for 40 minutes with lysis buffer (Tris HCl, pH 8, 20 mM, NaCl 137 mM, EDTA 2 mM, pH 8, 1% Triton-X-100, Protease Inhibitors cocktail: Sigma) on ice (Fingrut, 2005). Pellet lysates and supernatants were separated on 12% SDS-PAGE gels and electroblotted onto nitrocellulose membranes. Cytochrome c was detected by specific antibody (1:1000, BD PharMingen, San Diego, Calif.). Antigen-antibody complexes were stained with horseradish peroxidase-conjugated antibody (1:10,000, Santa Cruz Biotechnology, CA) and enhanced chemiluminescence (ECL) reagent (EZ-ECL, Biological Industries, Beit Haemek, Israel), and exposed to ECL film (Eastman Kodak, Rochester, N.Y., U.S.A.). Cytochrome c release from mitochondrial fraction isolated from CT-26 tumors occurred within the same time frame (15-60 minutes) required to detach hexokinase from mitochondria (FIG. 3). […]

[2] = system: CT26 cells transfected with pcDNA3-HKII or pcDNA3; assay: ATP depletion in CT26 cells over-expressing hexokinase II; format: cell-based, murine; conditions: 60 minutes exposure
Description: (§1) The CellTiter-Glo™ Luminescent Cell Viability Assay (Promega, Madison, Wis., U.S.A.) was employed (Fingrut, 2005). Upon completion of a given experiment, plates were equilibrated to room temperature. CellTiter-Glo™ reagent containing luciferin and luciferase was added to each well and the plates were mixed on an orbital shaker for 2 minutes to induce cell lysis. In the presence of ATP, Mg^2+ and molecular oxygen, mono-oxidation of luciferin is catalyzed by luciferase, generating a luminescence signal. Cells were then incubated for 10 minutes at room temperature to stabilize the luminescence signal. Luminescence was recorded using Kodak digital science—Image station 440 CD. Luminescence is directly proportional to ATP concentration. ATP depletion (% of control) was calculated in the following way: {(luminescence of control cells−luminescence of drug-treated cells)/luminescence of control cells}×100.

[3] = target: T1, purified rat brain HKI (Rattus norvegicus, UniProt P05708); assay: Surface plasmon resonance analysis of jasmonate-HK interactions; format: binding; conditions: analyte injected at varying concentrations (MJ 0.375-6 mM); 25° C.
T1 construct: from tissue; host or cells: rat brain mitochondria
T1 sequence (P05708 whole entry): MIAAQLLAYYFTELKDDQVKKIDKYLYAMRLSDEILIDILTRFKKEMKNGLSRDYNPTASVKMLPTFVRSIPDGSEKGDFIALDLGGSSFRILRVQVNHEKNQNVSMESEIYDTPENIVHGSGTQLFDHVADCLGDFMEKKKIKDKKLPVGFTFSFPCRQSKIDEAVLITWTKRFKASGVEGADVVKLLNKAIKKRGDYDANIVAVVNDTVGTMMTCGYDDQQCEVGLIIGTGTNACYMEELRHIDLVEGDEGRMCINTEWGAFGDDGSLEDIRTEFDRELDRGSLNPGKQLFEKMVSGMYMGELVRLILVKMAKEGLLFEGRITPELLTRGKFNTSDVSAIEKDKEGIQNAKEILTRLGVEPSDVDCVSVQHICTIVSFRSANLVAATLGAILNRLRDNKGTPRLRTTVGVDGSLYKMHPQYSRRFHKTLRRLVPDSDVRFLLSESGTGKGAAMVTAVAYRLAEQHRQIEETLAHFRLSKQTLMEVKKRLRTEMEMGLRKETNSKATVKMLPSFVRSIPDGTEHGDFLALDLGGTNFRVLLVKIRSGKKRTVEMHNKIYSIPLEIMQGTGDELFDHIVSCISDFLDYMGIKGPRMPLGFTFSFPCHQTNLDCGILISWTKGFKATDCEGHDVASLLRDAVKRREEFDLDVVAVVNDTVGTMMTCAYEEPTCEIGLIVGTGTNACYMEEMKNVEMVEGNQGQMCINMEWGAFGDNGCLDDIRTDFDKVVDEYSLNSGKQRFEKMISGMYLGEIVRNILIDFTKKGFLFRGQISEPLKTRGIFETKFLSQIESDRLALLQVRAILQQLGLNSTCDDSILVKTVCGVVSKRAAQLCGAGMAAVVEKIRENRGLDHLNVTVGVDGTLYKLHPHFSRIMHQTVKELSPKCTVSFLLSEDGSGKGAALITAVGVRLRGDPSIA
Description: Rat brain HK-I was purified as following, crude brain mitochondria containing tightly bound HK-I were incubated with 1.2 mM glucose-6-phosphate and 0.5 mM K-EDTA to release the enzyme into the soluble fraction. Further purification of HK-I was achieved by affinity chromatography on Cibacron Blue-agarose (Pharmacia). The purified enzyme was concentrated and washed in 0.5 mM K-EDTA, 10 mM glucose, 1 mM dithiothreitol and 10 mM K-Hepes, pH 7.8, using an Amicon device and a 50,000 Da molecular mass cut-off membrane (Spectrum; type C). The concentrated enzyme (up to 1 mg/ml; 30-60 units/mg) was frozen in liquid nitrogen and stored at −80° C. until use (Azoulay-Zohar, 2004).
Surface plasmon resonance (SPR) is an optical biosensor technique that measures molecular binding events at a metal surface by detecting changes in the local refractive index. SPR is the surface-sensitive technique ideal for studying interactions between immobilized biomolecules (ligands) and a solution-phase analyte. The biosensor response is directly proportional to the mass of the bound analyte. The advantage of SPR for investigation of small molecular weight analytes over conventional techniques such as fluorescence or enzyme-linked immunosorbent assay is detection of an analyte being label-free and direct, without the need for labeling of analyte or multistep detection protocols (sandwich assay). […]

[4] = system: Molt-4 cells; assay: Cellular ATP levels (CellTiter-Glo), Molt-4; format: cell-based, human; conditions: 60 minutes of exposure, various concentrations
Description: as §1, with “cells}×100. In order to test the correlation between cellular ATP levels and the release of hexokinase from mitochondrial fraction different cancer cells, namely Molt-4 cells, BCL-1 leukemic cells and B16 melanoma tumors were exposed to various methyl jasmonate concentrations. […] CT26 and Molt-4 cells were then seeded in 24 well plates. CT26 cells were allowed to adhere over night. Cells were exposed to methyl jasmonate (MJ; 3 mM) for 1 hour. Trypan blue exclusion test was performed and cells were counted.” for “cells}×100.”

CC/C=C\CC1C(=O)CCC1CC(=O)OC (centres unmarked) [methyl jasmonate]
time frame of cytochrome c release ([1]; CT-26 tumor mitochondrial fraction): 15 to 60 min | release of cytochrome c from isolated mitochondrial fraction ([1]; CT-26 tumor, 37° C.): caused time-dependent release of cytochrome c | depletion of cellular ATP levels, hexokinase II over-expressing vs. control cells [2]: decreased in cells with higher expression of hexokinase II | binding to immobilized hexokinase (SPR) [3]: bind to purified rat brain HKI in a dose-dependent manner | cellular ATP level [4]: significant and dose-dependent decrease of cellular ATP

Source: patent publication US8349553B2, “Jasmonate based assays for identifying compounds that selectively inhibit mitochondrial bound hexokinases” (Ramot at Tel Aviv University Ltd., priority 2007, dated 2013)
